Converted amounts (≈) assume the structure as drawn.
Experiments:
Type in all cases: cell-based
S. aureus MP-12 = assay: Broth dilution MIC determination (CLSI), S. aureus MP-12; settings: Staphylococcus aureus, MP12; strain MP-12, broth dilution
E. coli MP-4 = assay: Broth dilution MIC determination (CLSI), E. coli MP-4; settings: Escherichia coli, MP4; strain MP-4, broth dilution; read-out: MIC E. coli MP-4
K. pneumoniae MP-546 = assay: Broth dilution MIC determination (CLSI), K. pneumoniae MP-546; settings: Klebsiella pneumoniae, MP546; strain MP-546, broth dilution
K. pneumoniae MP-648 = assay: Broth dilution MIC determination (CLSI), K. pneumoniae MP-648; settings: Klebsiella pneumoniae, MP648; strain MP-648, broth dilution
P. aeruginosa MP-3 = assay: Broth dilution MIC determination (CLSI), P. aeruginosa MP-3; settings: Pseudomonas aeruginosa, MP3; strain MP-3, broth dilution
A. baumannii MP-15 = assay: Broth dilution MIC determination (CLSI), A. baumannii MP-15; settings: Acinetobacter baumannii, MP15; strain MP-15, broth dilution; read-out: MIC A. baumanii MP-15

CO[C@]1(C)C[C@@H](C)CN(C)[C@H](C2CN(C(=O)CN(C)C)C2)[C@@H](C)OC(=O)C(C)(C)C(=O)[C@H](C)[C@H]1O[C@@H]1O[C@H](C)C[C@H](N(C)C)[C@H]1O [Compound 120, (2R,3R,6R,8R,9R,10R)-9-(((2S,3R,4S,6R)-4-(dimethylamino)-3-hydroxy-6-methyltetrahydro-2H-pyran-2-yl)oxy)-3-(1-(dimethylglycyl)azetidin-3-yl)-8-methoxy-2,4,6,8,10,12,12-heptamethyl-1-oxa-4-azacyclotridecane-11,13-dione]
MIC (S. aureus MP-12): > 32 µg/mL | MIC (E. coli MP-4): 4 to 32 µg/mL (≈ 6.11 to 48.9 µM) | MIC (K. pneumoniae MP-546): 4 to 32 µg/mL (≈ 6.11 to 48.9 µM) | MIC (K. pneumoniae MP-648): > 32 µg/mL | MIC (P. aeruginosa MP-3): > 32 µg/mL | MIC (A. baumannii MP-15): > 32 µg/mL

CCN(C)CC(C)(C)CC(=O)N1CC([C@@H]2COC(=O)C(C)(C)C(=O)[C@H](C)[C@@H](O[C@@H]3O[C@H](C)C[C@H](N(C)C)[C@H]3O)[C@](C)(OC)C[C@@H](C)CN2C)C1 [Compound 122, (3R,6R,8R,9R,10R)-9-(((2S,3R,4S,6R)-4-(dimethylamino)-3-hydroxy-6-methyltetrahydro-2H-pyran-2-yl)oxy)-3-(1-(4-(ethyl(methyl)amino)-3,3-dimethylbutanoyl)azetidin-3-yl)-8-methoxy-4,6,8,10,12,12-hexamethyl-1-oxa-4-azacyclotridecane-11,13-dione]
MIC (S. aureus MP-12): 4 to 32 µg/mL (≈ 5.63 to 45 µM) | MIC (E. coli MP-4): < 4 µg/mL | MIC (K. pneumoniae MP-546): 4 to 32 µg/mL (≈ 5.63 to 45 µM) | MIC (K. pneumoniae MP-648): 4 to 32 µg/mL (≈ 5.63 to 45 µM) | MIC (P. aeruginosa MP-3): > 32 µg/mL | MIC (A. baumannii MP-15): > 32 µg/mL

COCC(C)N1CCC([C@H]2COC(=O)C(C)(C)C(=O)[C@H](C)[C@@H](O[C@@H]3O[C@H](C)C[C@H](N(C)C)[C@H]3O)[C@](C)(OC)C[C@@H](C)CN2C)CC1 (stereo partly drawn) [Compound 124, (3S,6R,8R,9R,10R)-9-(((2S,3R,4S,6R)-4-(dimethylamino)-3-hydroxy-6-methyltetrahydro-2H-pyran-2-yl)oxy)-8-methoxy-3-(1-(1-methoxypropan-2-yl)piperidin-4-yl)-4,6,8,10,12,12-hexamethyl-1-oxa-4-azacyclotridecane-11,13-dione]
MIC (S. aureus MP-12): 4 to 32 µg/mL (≈ 6.1 to 48.8 µM) | MIC (E. coli MP-4): < 4 µg/mL | MIC (K. pneumoniae MP-546): < 4 µg/mL | MIC (K. pneumoniae MP-648): 4 to 32 µg/mL (≈ 6.1 to 48.8 µM) | MIC (P. aeruginosa MP-3): > 32 µg/mL | MIC (A. baumannii MP-15): > 32 µg/mL

CO[C@]1(C)C[C@@H](C)CN(C)[C@H](C2CN(C(=O)CCN(C)CC(C)C)C2)COC(=O)C(C)(C)C(=O)[C@H](C)[C@H]1O[C@@H]1O[C@H](C)C[C@H](N(C)C)[C@H]1O [Compound 125, (3R,6R,8R,9R,10R)-9-(((2S,3R,4S,6R)-4-(dimethylamino)-3-hydroxy-6-methyltetrahydro-2H-pyran-2-yl)oxy)-3-(1-(3-(isobutyl(methyl)amino)propanoyl)azetidin-3-yl)-8-methoxy-4,6,8,10,12,12-hexamethyl-1-oxa-4-azacyclotridecane-11,13-dione]
MIC (S. aureus MP-12): > 32 µg/mL | MIC (E. coli MP-4): < 4 µg/mL | MIC (K. pneumoniae MP-546): 4 to 32 µg/mL (≈ 5.74 to 45.9 µM) | MIC (K. pneumoniae MP-648): 4 to 32 µg/mL (≈ 5.74 to 45.9 µM) | MIC (P. aeruginosa MP-3): > 32 µg/mL | MIC (A. baumannii MP-15): > 32 µg/mL

CO[C@]1(C)C[C@@H](C)CN(C)[C@H](C2CN(C(=O)[C@H]3CCN(CC4CC4)C3)C2)COC(=O)C(C)(C)C(=O)[C@H](C)[C@H]1O[C@@H]1O[C@H](C)C[C@H](N(C)C)[C@H]1O [Compound 126, (3R,6R,8R,9R,10R)-3-(1-((S)-1-(cyclopropylmethyl)pyrrolidine-3-carbonyl)azetidin-3-yl)-9-(((2S,3R,4S,6R)-4-(dimethylamino)-3-hydroxy-6-methyltetrahydro-2H-pyran-2-yl)oxy)-8-methoxy-4,6,8,10,12,12-hexamethyl-1-oxa-4-azacyclotridecane-11,13-dione]
MIC (S. aureus MP-12): 4 to 32 µg/mL (≈ 5.66 to 45.3 µM) | MIC (E. coli MP-4): < 4 µg/mL | MIC (K. pneumoniae MP-546): 4 to 32 µg/mL (≈ 5.66 to 45.3 µM) | MIC (K. pneumoniae MP-648): 4 to 32 µg/mL (≈ 5.66 to 45.3 µM) | MIC (P. aeruginosa MP-3): > 32 µg/mL | MIC (A. baumannii MP-15): > 32 µg/mL

CO[C@]1(C)C[C@@H](C)CN(C)[C@H](C2CN(CC3CCOC3)C2)COC(=O)C(C)(C)C(=O)[C@H](C)[C@H]1O[C@@H]1O[C@H](C)C[C@H](N(C)C)[C@H]1O (stereo partly drawn) [Compound 127, (3R,6R,8R,9R,10R)-9-(((2S,3R,4S,6R)-4-(dimethylamino)-3-hydroxy-6-methyltetrahydro-2H-pyran-2-yl)oxy)-8-methoxy-4,6,8,10,12,12-hexamethyl-3-(1-((tetrahydrofuran-3-yl)methyl)azetidin-3-yl)-1-oxa-4-azacyclotridecane-11,13-dione]
MIC (S. aureus MP-12): 4 to 32 µg/mL (≈ 6.25 to 50 µM) | MIC (E. coli MP-4): < 4 µg/mL | MIC (K. pneumoniae MP-546): 4 to 32 µg/mL (≈ 6.25 to 50 µM) | MIC (K. pneumoniae MP-648): 4 to 32 µg/mL (≈ 6.25 to 50 µM) | MIC (P. aeruginosa MP-3): > 32 µg/mL | MIC (A. baumannii MP-15): > 32 µg/mL

CO[C@]1(C)C[C@@H](C)CN(C)[C@H]([C@H]2C[C@@H](N(C)C)C2)COC(=O)C(C)(C)C(=O)[C@H](C)[C@H]1O[C@@H]1O[C@H](C)C[C@H](N(C)C)[C@H]1O [Compound 128, (3R,6R,8R,9R,10R)-9-(((2S,3R,4S,6R)-4-(dimethylamino)-3-hydroxy-6-methyltetrahydro-2H-pyran-2-yl)oxy)-3-((1s,3S)-3-(dimethylamino)cyclobutyl)-8-methoxy-4,6,8,10,12,12-hexamethyl-1-oxa-4-azacyclotridecane-11,13-dione]
MIC (S. aureus MP-12): > 32 µg/mL | MIC (E. coli MP-4): < 4 µg/mL | MIC (K. pneumoniae MP-546): 4 to 32 µg/mL (≈ 6.69 to 53.5 µM) | MIC (K. pneumoniae MP-648): 4 to 32 µg/mL (≈ 6.69 to 53.5 µM) | MIC (P. aeruginosa MP-3): > 32 µg/mL | MIC (A. baumannii MP-15): > 32 µg/mL

CO[C@]1(C)C[C@@H](C)CN(C)[C@H]([C@H]2C[C@H](N(C)CC(C)C)C2)COC(=O)C(C)(C)C(=O)[C@H](C)[C@H]1O[C@@H]1O[C@H](C)C[C@H](N(C)C)[C@H]1O [Compound 131, (3R,6R,8R,9R,10R)-9-(((2S,3R,4S,6R)-4-(dimethylamino)-3-hydroxy-6-methyltetrahydro-2H-pyran-2-yl)oxy)-3-((1r,3R)-3-(isobutyl(methyl)amino)cyclobutyl)-8-methoxy-4,6,8,10,12,12-hexamethyl-1-oxa-4-azacyclotridecane-11,13-dione]
MIC (S. aureus MP-12): 4 to 32 µg/mL (≈ 6.25 to 50 µM) | MIC (E. coli MP-4): < 4 µg/mL | MIC (K. pneumoniae MP-546): < 4 µg/mL | MIC (K. pneumoniae MP-648): < 4 µg/mL | MIC (P. aeruginosa MP-3): > 32 µg/mL | MIC (A. baumannii MP-15): 4 to 32 µg/mL (≈ 6.25 to 50 µM)

CO[C@]1(C)C[C@@H](C)CN(C)[C@H](C2CN(Cc3cc(C)on3)C2)COC(=O)C(C)(C)C(=O)[C@H](C)[C@H]1O[C@@H]1O[C@H](C)C[C@H](N(C)C)[C@H]1O [Compound 132, (3R,6R,8R,9R,10R)-9-(((2S,3R,4S,6R)-4-(dimethylamino)-3-hydroxy-6-methyltetrahydro-2H-pyran-2-yl)oxy)-8-methoxy-4,6,8,10,12,12-hexamethyl-3-(1-((5-methylisoxazol-3-yl)methyl)azetidin-3-yl)-1-oxa-4-azacyclotridecane-11,13-dione]
MIC (S. aureus MP-12): 4 to 32 µg/mL (≈ 6.15 to 49.2 µM) | MIC (E. coli MP-4): 4 to 32 µg/mL (≈ 6.15 to 49.2 µM) | MIC (K. pneumoniae MP-546): 4 to 32 µg/mL (≈ 6.15 to 49.2 µM) | MIC (K. pneumoniae MP-648): > 32 µg/mL | MIC (P. aeruginosa MP-3): > 32 µg/mL | MIC (A. baumannii MP-15): > 32 µg/mL

CCN(C)CCCC(=O)N1CC([C@@H]2COC(=O)C(C)(C)C(=O)[C@H](C)[C@@H](O[C@@H]3O[C@H](C)C[C@H](N(C)C)[C@H]3O)[C@](C)(OC)C[C@@H](C)CN2C)C1 [Compound 135, (3R,6R,8R,9R,10R)-9-(((2S,3R,4S,6R)-4-(dimethylamino)-3-hydroxy-6-methyltetrahydro-2H-pyran-2-yl)oxy)-3-(1-(4-(ethyl(methyl)amino)butanoyl)azetidin-3-yl)-8-methoxy-4,6,8,10,12,12-hexamethyl-1-oxa-4-azacyclotridecane-11,13-dione]
MIC (S. aureus MP-12): > 32 µg/mL | MIC (E. coli MP-4): 4 to 32 µg/mL (≈ 5.86 to 46.9 µM) | MIC (K. pneumoniae MP-546): > 32 µg/mL | MIC (K. pneumoniae MP-648): 4 to 32 µg/mL (≈ 5.86 to 46.9 µM) | MIC (P. aeruginosa MP-3): > 32 µg/mL | MIC (A. baumannii MP-15): > 32 µg/mL

CCCN1CC([C@@H]2[C@@H](C)OC(=O)C(C)(C)C(=O)[C@H](C)[C@@H](O[C@@H]3O[C@H](C)C[C@H](N(C)C)[C@H]3O)[C@](C)(OC)C[C@@H](C)CN2C)C1 [Compound 136, (2R,3R,6R,8R,9R,10R)-9-(((2S,3R,4S,6R)-4-(dimethylamino)-3-hydroxy-6-methyltetrahydro-2H-pyran-2-yl)oxy)-8-methoxy-2,4,6,8,10,12,12-heptamethyl-3-(1-propylazetidin-3-yl)-1-oxa-4-azacyclotridecane-11,13-dione]
MIC (S. aureus MP-12): > 32 µg/mL | MIC (E. coli MP-4): 4 to 32 µg/mL (≈ 6.54 to 52.3 µM) | MIC (K. pneumoniae MP-546): > 32 µg/mL | MIC (K. pneumoniae MP-648): > 32 µg/mL | MIC (P. aeruginosa MP-3): > 32 µg/mL | MIC (A. baumannii MP-15): > 32 µg/mL

CO[C@]1(C)C[C@@H](C)CN(C)[C@H](C2CN(C(=O)CN3CCCC3)C2)COC(=O)C(C)(C)C(=O)[C@H](C)[C@H]1O[C@@H]1O[C@H](C)C[C@H](N(C)C)[C@H]1O [Compound 138, (3R,6R,8R,9R,10R)-9-(((2S,3R,4S,6R)-4-(dimethylamino)-3-hydroxy-6-methyltetrahydro-2H-pyran-2-yl)oxy)-8-methoxy-4,6,8,10,12,12-hexamethyl-3-(1-(2-(pyrrolidin-1-yl)acetyl)azetidin-3-yl)-1-oxa-4-azacyclotridecane-11,13-dione]
MIC (S. aureus MP-12): 4 to 32 µg/mL (≈ 6 to 48 µM) | MIC (E. coli MP-4): < 4 µg/mL | MIC (K. pneumoniae MP-546): < 4 µg/mL | MIC (K. pneumoniae MP-648): 4 to 32 µg/mL (≈ 6 to 48 µM) | MIC (P. aeruginosa MP-3): > 32 µg/mL | MIC (A. baumannii MP-15): > 32 µg/mL

CO[C@]1(C)C[C@@H](C)CN(C)[C@H](C2CN(C(=O)CCCN(C)C)C2)COC(=O)C(C)(C)C(=O)[C@H](C)[C@H]1O[C@@H]1O[C@H](C)C[C@H](N(C)C)[C@H]1O [Compound 139, (3R,6R,8R,9R,10R)-9-(((2S,3R,4S,6R)-4-(dimethylamino)-3-hydroxy-6-methyltetrahydro-2H-pyran-2-yl)oxy)-3-(1-(4-(dimethylamino)butanoyl)azetidin-3-yl)-8-methoxy-4,6,8,10,12,12-hexamethyl-1-oxa-4-azacyclotridecane-11,13-dione]
MIC (S. aureus MP-12): > 32 µg/mL | MIC (E. coli MP-4): 4 to 32 µg/mL (≈ 5.98 to 47.8 µM) | MIC (K. pneumoniae MP-546): > 32 µg/mL | MIC (K. pneumoniae MP-648): > 32 µg/mL | MIC (P. aeruginosa MP-3): > 32 µg/mL | MIC (A. baumannii MP-15): > 32 µg/mL

Reference: patent US20220177508A1, “C10-Cyclic Substituted 13-Membered Macrolides and Uses Thereof” (Zikani Therapeutics, Inc., priority 2018, published 2022)
